Test results from ChEMBL document CHEMBL5634155, “Design and synthesis of pyrazole derivatives against neutrophilic inflammation” (Eur J Med Chem, 2023).
Active and inactive are the calls of the source. The rule behind the calls is not given here.

How the values were obtained:
Neutrophil [1] = assay: Inhibition of fMLF/CB-induced human Neutrophil activation assessed as reduction in superoxide anion generation preincubated with compound for 2 mins prior to CB induction for 3 mins followed by fMLF addition by spectrophotometric analysis; assay type: functional, cell-based
Neutrophil [2] = assay: Inhibition of fMLF/CB-induced human Neutrophil activation assessed as reduction in superoxide anion generation at 10 uM preincubated with compound for 2 mins prior to CB induction for 3 mins followed by fMLF addition by spectrophotometric analysis relative to control; assay type: functional; conditions: 5 min
Neutrophil [3] = assay: Inhibition of fMLF/CB-induced human Neutrophil activation assessed as reduction in elastase release using MeO-Suc-Ala-Ala-Pro-Val-pnitroanilide as substrate incubated for 5 mins; assay type: functional, cell-based
Neutrophil [4] = assay: Inhibition of fMLF/CB-induced human Neutrophil activation assessed as reduction in elastase release at 10 uM using MeO-Suc-Ala-Ala-Pro-Val-pnitroanilide as substrate incubated for 5 mins relative to control; assay type: functional
Neutrophil [5] = assay: Inhibition of fMLF/CB-induced human Neutrophil activation assessed as reduction in superoxide anion generation at 1 to 1000 nM preincubated with compound for 2 mins prior to CB induction for 3 mins followed by fMLF addition in presence of KT5720 by spectrophotometric analysis; assay type: functional, cell-based; conditions: dose 1-1000 nM, time 5.0 min
[6] = AUC (0 to infinity) in C57BL/6 mouse at 5 mg/kg, iv measured upto 360 mins by HPLC analysis; assay type: ADME, organism-based; conditions: in vivo
[7] = Half life in C57BL/6 mouse at 5 mg/kg, iv measured upto 360 mins by HPLC analysis; assay type: ADME, organism-based; conditions: in vivo
[8] = Clearance in C57BL/6 mouse at 5 mg/kg, iv measured upto 360 mins by HPLC analysis; assay type: ADME, organism-based; conditions: in vivo
[9] = Apparent volume of distribution in C57BL/6 mouse at 5 mg/kg, iv measured upto 360 mins by HPLC analysis; assay type: ADME, organism-based; conditions: in vivo, 6 h

Structure (SMILES)	IC50 (Neutrophil [1])	IC50 (Neutrophil [3])	AUC(0-inf) [6]	half-life [7]	clearance [8]	Vz [9]	inhibition at 10 µM (Neutrophil [2])	inhibition at 10 µM (Neutrophil [4])	inhibition (Neutrophil [5])
CCC(=O)c1ccc(-c2nn(Cc3ccccc3F)c3ccccc23)o1	0.18 µM	2.54 µM	–	–	–	–	106%	93.4%	–
CCCCCCCn1nc(-c2cccs2)cc1-c1ccccc1	> 10 µM	> 10 µM	–	–	–	–	16.6%	21.1%	–
COc1ccc(-c2nn(CC3CCCCC3)cc2-c2ccccc2)cc1OC	> 10 µM	> 10 µM	–	–	–	–	43.9%	19.1%	–
O=[N+]([O-])c1cccc2c(-c3ccc(CO)o3)nn(Cc3ccccc3)c12	1.81 µM	7.58 µM	–	–	–	–	82.6%	68.3%	–
c1ccc(Cn2nc(-c3ccco3)cc2-c2ccccc2)cc1	0.0751 µM	> 10 µM	–	–	–	–	73%	46%	–
Fc1cccc(Cn2cc(-c3ccccc3)c(-c3ccco3)n2)c1	–	2.05 µM	–	–	–	–	90.2%	100%	–
O=C(c1ccccc1F)n1nc(-c2ccco2)c2ccccc21	0.34 µM	> 10 µM	–	–	–	–	69.5%	-9.57%	–
COc1ccccc1C(=O)n1nc(-c2ccco2)c2ccccc21	> 10 µM	> 10 µM	–	–	–	–	14.5%	-0.2%	–
Fc1ccccc1Cn1nc(-c2ccccc2)cc1-c1ccccc1	4.69 µM	> 10 µM	–	–	–	–	61.8%	35%	–
COc1ccc(-c2cc(-c3ccccc3)n(Cc3cccc(F)c3)n2)cc1OC	> 10 µM	> 10 µM	–	–	–	–	44.5%	38.5%	–
CCCCCCCn1nc(-c2ccc(C=O)o2)c2ccccc21	> 10 µM	2.56 µM	–	–	–	–	5.88%	67.1%	–
c1ccc(Cn2cc(-c3ccccc3)c(-c3ccco3)n2)cc1	–	> 10 µM	–	–	–	–	94.2%	101%	–
COc1ccc(-c2nn(Cc3ccccc3)cc2-c2ccccc2)cc1OC	218 µM	> 10 µM	–	–	–	–	68.2%	7.02%	–
CCCCCCCn1nc(-c2ccco2)cc1-c1ccccc1	0.694 µM	2.13 µM	–	–	–	–	101%	115%	–
COc1cccc(Cn2nc(-c3ccccc3)cc2-c2ccccc2)c1	> 10 µM	> 10 µM	–	–	–	–	8.5%	1.65%	–
CCCCCCCn1cc(-c2ccccc2)c(-c2ccccc2)n1	> 10 µM	> 10 µM	–	–	–	–	0.72%	16.9%	–
c1ccc(Cn2nc(-c3ccco3)c3ccccc32)cc1	2.32 µM	> 10 µM	–	–	–	–	71.8%	20.4%	–
O=Cc1ccc(-c2nn(Cc3ccccc3)c3ccccc23)o1	1 µM	3.68 µM	–	–	–	–	75.2%	89.7%	–
Brc1ccccc1Cn1nc(-c2ccco2)c2ccccc21	1.47 µM	4.84 µM	–	–	–	–	93.1%	78%	–
c1ccc(-c2cn(CC3CCCCC3)nc2-c2ccco2)cc1	833 µM	1.19 µM	–	–	–	–	104%	109%	–
COc1cccc(Cn2cc(-c3ccccc3)c(-c3ccccc3)n2)c1	164 µM	> 10 µM	–	–	–	–	68.6%	25%	–
CCCCCCCn1nc(-c2ccc(C(=O)O)o2)c2ccccc21	2.03 µM	1.92 µM	–	–	–	–	98.7%	112%	–
Fc1ccccc1Cn1nc(-c2ccco2)c2ccccc21	1.05 µM	2.11 µM	–	–	–	–	100%	94.5%	–
O=Cc1ccc(-c2nn(CC3CCCCC3)c3ccccc23)o1	0.17 µM	1.18 µM	–	–	–	–	63.4%	102%	–
COc1ccc(-c2nn(Cc3cccc(F)c3)cc2-c2ccccc2)cc1OC	> 10 µM	> 10 µM	–	–	–	–	33.7%	16%	–
c1ccc(Cn2cc(-c3ccccc3)c(-c3cccs3)n2)cc1	145 µM	> 10 µM	–	–	–	–	65.7%	23.5%	–
COc1ccccc1C(=O)n1nc(-c2ccc(C=O)o2)c2ccccc21	> 10 µM	> 10 µM	–	–	–	–	10.4%	31.8%	–
O=Cc1ccc(-c2nn(Cc3ccccc3F)c3ccccc23)o1	0.71 µM	5.27 µM	–	–	–	–	78.2%	84.7%	–

Continued, in another order:

IC50 (Neutrophil [1])	IC50 (Neutrophil [3])	AUC(0-inf) [6]	half-life [7]	clearance [8]	Vz [9]	Structure (SMILES)	inhibition at 10 µM (Neutrophil [2])	inhibition at 10 µM (Neutrophil [4])	inhibition (Neutrophil [5])
2.83 µM	> 10 µM	–	–	–	–	c1ccc(Cn2nc(-c3ccccc3)cc2-c2ccccc2)cc1	63.6%	36.8%	–
0.0745 µM	> 10 µM	–	–	–	–	c1ccc(Cn2nc(-c3cccs3)cc2-c2ccccc2)cc1	70%	39.1%	–
1.76 µM	> 10 µM	–	–	–	–	COc1cccc(Cn2nc(-c3cccs3)cc2-c2ccccc2)c1	63.3%	32.8%	–
1.55 µM	1.84 µM	–	–	–	–	O=Cc1ccc(-c2cc(-c3ccccc3)n(Cc3ccccc3)n2)o1	80.8%	96.1%	–
0.2 µM	2.42 µM	–	–	–	–	c1ccc(-c2cc(-c3ccco3)nn2CC2CCCCC2)cc1	99.3%	109%	–
> 10 µM	> 10 µM	–	–	–	–	Fc1cccc(Cn2nc(-c3ccccc3)cc2-c2ccccc2)c1	48.3%	17.6%	–
0.19 µM	2.27 µM	–	–	–	–	O=Cc1ccc(-c2nn(Cc3ccccc3Br)c3ccccc23)o1	67.4%	106%	–
0.17 µM	–	–	–	–	–	O=C(c1ccccc1)n1nc(-c2ccco2)c2ccccc21	59.7%	–	–
0.0762 µM	> 10 µM	–	–	–	–	Fc1cccc(Cn2nc(-c3cccs3)cc2-c2ccccc2)c1	73.3%	35.5%	–
0.0459 µM	3.57 µM	–	–	–	–	Fc1cccc(Cn2nc(-c3ccco3)cc2-c2ccccc2)c1	94.6%	76.6%	–
> 10 µM	> 10 µM	–	–	–	–	CCCCCCCn1nc(-c2ccccc2)cc1-c1ccccc1	4.58%	1.6%	–
> 10 µM	> 10 µM	–	–	–	–	c1ccc(-c2cn(CC3CCCCC3)nc2-c2ccccc2)cc1	6.73%	8.93%	–
0.18 µM	0.26 µM	–	–	–	–	c1coc(-c2nn(CC3CCCCC3)c3ccccc23)c1	87.8%	73.9%	–
> 10 µM	> 10 µM	–	–	–	–	OC(c1ccc(-c2nn(Cc3ccccc3F)c3ccccc23)o1)C(F)(F)F (stereo unspecified)	35.7%	10.3%	–
1.79 µM	> 10 µM	–	–	–	–	Fc1cccc(Cn2cc(-c3ccccc3)c(-c3cccs3)n2)c1	63.7%	33.6%	–
> 10 µM	> 10 µM	–	–	–	–	CCCCCCCn1nc(-c2ccco2)c2ccccc21	8.38%	44.2%	–
> 10 µM	> 10 µM	–	–	–	–	c1ccc(-c2cc(-c3ccccc3)n(CC3CCCCC3)n2)cc1	40.8%	8.16%	–
201 µM	> 10 µM	–	–	–	–	c1ccc(Cn2cc(-c3ccccc3)c(-c3ccccc3)n2)cc1	61.6%	6.79%	–
0.0133 µM	> 10 µM	900 ng·h/mL	1.03 h	1.85 mL/min	165 mL	Fc1ccccc1Cn1nc(-c2cccs2)cc1-c1ccccc1	72.2%	38.2%	Active
4.93 µM	> 10 µM	–	–	–	–	O=C(O)c1ccc(-c2nn(CC3CCCCC3)c3ccccc23)o1	73.2%	43.6%	–
> 10 µM	> 10 µM	–	–	–	–	CCCCCCCn1cc(-c2ccccc2)c(-c2cccs2)n1	-5.72%	21%	–
–	1.08 µM	–	–	–	–	CCCCCCCn1cc(-c2ccccc2)c(-c2ccco2)n1	102%	110%	–
> 10 µM	> 10 µM	–	–	–	–	O=Cc1ccc(-c2nn(C(=O)c3ccccc3F)c3ccccc23)o1	31.8%	52.2%	–
> 10 µM	> 10 µM	–	–	–	–	O=C(O)c1ccc(-c2nn(Cc3ccccc3)c3ccccc23)o1	43.4%	16.8%	–
> 10 µM	> 10 µM	–	–	–	–	O=Cc1ccc(-c2nn(C(=O)c3ccccc3)c3ccccc23)o1	10.1%	18.1%	–
> 10 µM	> 10 µM	–	–	–	–	c1ccc(-c2cc(-c3cccs3)nn2CC2CCCCC2)cc1	39%	15.2%	–
